# Source: ChEMBL document CHEMBL1201862, “PubChem BioAssay data set” (2004)
#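 Cultured in 96-well plates, cells were exposed to test compound for 48 hours across five concentrations. At the GI50, growth is halved.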 Activity calls are given as the source filed them. No stated cut-off is given here; in the data, active = GI50 up to about 1.1 µM and inactive = higher.
# Columns and labels:
# Assay in all cases: growth of human tumour cells (NCI), 48 h
# [1] = system: RPMI-8226
# [2] = system: SN12C
# [3] = system: SF-539
# [4] = system: RXF 393
# [5] = system: M14
# [6] = system: LXFL 529
# [7] = system: DLD-1
# [8] = system: CCRF-CEM
# [9] = system: KM12
# [10] = system: HCC 2998
# [11] = system: SR
# [12] = system: A549
# [13] = system: XF498
# [14] = system: U-251
# [15] = system: SF-295
# [16] = system: Malme-3M
# [17] = system: HCT-15
# [18] = system: OVCAR-4
# [19] = system: HT-29
# [20] = system: OVCAR-3
# [21] = system: HOP-62
# [22] = system: K562
# [23] = system: OVCAR-5
# [24] = system: UO-31
# [25] = system: SK-MEL-2
# [26] = system: SK-MEL-28
# [27] = system: SK-OV-3
# [28] = system: DMS-114
# [29] = system: 786-0
# [30] = system: SNB-75
# [31] = system: CAKI-1
# [32] = system: SF-268
# [33] = system: NCI-H226
# [34] = system: NCI-H460
# [35] = system: ACHN
# [36] = system: NCI-H23
# [37] = system: SW-620
# [38] = system: HL-60
# [39] = system: SNB-19
# [40] = system: OVCAR-8
# [41] = system: HCT-116
# [42] = system: DMS-273
# [43] = system: TK-10
# [44] = system: SNB-78
# [45] = system: IGROV-1
# [46] = system: M19-MEL
# [47] = system: COLO 205
# [48] = system: LOX IMVI
# [49] = system: HOP-92
# [50] = system: SK-MEL-5
# [51] = system: EKVX
# [52] = system: KM-20L2
# [53] = system: NCI-H522
# [54] = system: UACC-62
# [55] = system: MOLT-4
# [56] = system: UACC-257
# [57] = system: A498
# [58] = system: HOP-18
compound,measurement,setting,value
O=C1Nc2ccccc2Nc2nc3cccccc-3c21,GI50,[1],> 100 µM (inactive)
same,GI50,[2],> 100 µM (inactive)
same,GI50,[3],> 100 µM (inactive)
same,GI50,[4],> 100 µM (inactive)
same,GI50,[5],> 100 µM (inactive)
same,GI50,[6],> 100 µM (inactive)
same,GI50,[7],> 100 µM (inactive)
same,GI50,[8],> 100 µM (inactive)
same,GI50,[9],> 100 µM (inactive)
same,GI50,[10],> 100 µM (inactive)
same,GI50,[11],> 100 µM (inactive)
same,GI50,[12],> 100 µM (inactive)
same,GI50,[13],> 100 µM (inactive)
same,GI50,[14],> 100 µM (inactive)
same,GI50,[15],> 100 µM (inactive)
same,GI50,[16],> 100 µM (inactive)
same,GI50,[17],> 100 µM
same,GI50,[18],> 100 µM (inactive)
same,GI50,[19],> 100 µM (inactive)
same,GI50,[20],> 100 µM (inactive)
same,GI50,[21],> 100 µM (inactive)
same,GI50,[22],> 100 µM (inactive)
same,GI50,[23],> 100 µM (inactive)
same,GI50,[24],> 100 µM (inactive)
same,GI50,[25],> 100 µM (inactive)
same,GI50,[26],> 100 µM (inactive)
same,GI50,[27],> 100 µM (inactive)
same,GI50,[28],> 100 µM (inactive)
same,GI50,[29],> 100 µM (inactive)
same,GI50,[30],> 100 µM (inactive)
same,GI50,[31],> 100 µM (inactive)
same,GI50,[32],> 100 µM (inactive)
same,GI50,[33],> 100 µM (inactive)
same,GI50,[34],> 100 µM (inactive)
same,GI50,[35],> 100 µM (inactive)
same,GI50,[36],> 100 µM (inactive)
same,GI50,[37],> 100 µM (inactive)
same,GI50,[38],> 100 µM (inactive)
same,GI50,[39],> 100 µM (inactive)
same,GI50,[40],> 100 µM (inactive)
same,GI50,[41],> 100 µM (inactive)
same,GI50,[42],> 100 µM (inactive)
same,GI50,[43],> 100 µM (inactive)
same,GI50,[44],> 100 µM (inactive)
same,GI50,[45],> 100 µM (inactive)
same,GI50,[46],> 100 µM (inactive)
same,GI50,[47],> 100 µM (inactive)
same,GI50,[48],> 100 µM (inactive)
same,GI50,[49],> 100 µM (inactive)
same,GI50,[50],> 100 µM (inactive)
same,GI50,[51],> 100 µM (inactive)
same,GI50,[52],> 100 µM (inactive)
same,GI50,[53],> 100 µM (inactive)
same,GI50,[54],> 100 µM (inactive)
CCCCc1c2c(nc3c1CCc1cc4c(nc1-3)-c1nc3c(c(CCCC)c1CC4)CCC/C3=C\c1ccccc1)/C(=C/c1ccccc1)CCC2,GI50,[1],> 100 µM (inactive)
same,GI50,[2],> 100 µM (inactive)
same,GI50,[3],33.5 µM (inactive)
same,GI50,[4],23.3 µM (inactive)
same,GI50,[5],> 100 µM (inactive)
same,GI50,[6],30.8 µM (inactive)
same,GI50,[7],> 100 µM (inactive)
same,GI50,[8],48.6 µM (inactive)
same,GI50,[9],98.9 µM (inactive)
same,GI50,[10],88.3 µM (inactive)
same,GI50,[11],> 100 µM (inactive)
same,GI50,[12],> 100 µM (inactive)
same,GI50,[55],> 100 µM (inactive)
same,GI50,[13],32.5 µM (inactive)
same,GI50,[14],47.3 µM (inactive)
same,GI50,[15],78.9 µM (inactive)
same,GI50,[16],> 100 µM (inactive)
same,GI50,[17],> 100 µM
same,GI50,[19],85.3 µM (inactive)
same,GI50,[20],40.6 µM (inactive)
same,GI50,[21],36.9 µM (inactive)
same,GI50,[22],> 100 µM (inactive)
same,GI50,[23],> 100 µM (inactive)
same,GI50,[24],> 100 µM (inactive)
same,GI50,[25],35.2 µM (inactive)
same,GI50,[26],> 100 µM (inactive)
same,GI50,[27],36.2 µM (inactive)
same,GI50,[28],47.5 µM (inactive)
same,GI50,[29],25.2 µM (inactive)
same,GI50,[31],29.1 µM (inactive)
same,GI50,[32],> 100 µM (inactive)
same,GI50,[33],> 100 µM (inactive)
same,GI50,[34],28.2 µM (inactive)
same,GI50,[36],73.5 µM (inactive)
same,GI50,[37],67 µM (inactive)
same,GI50,[38],62.1 µM (inactive)
same,GI50,[56],> 100 µM (inactive)
same,GI50,[39],35.9 µM (inactive)
same,GI50,[40],> 100 µM (inactive)
same,GI50,[41],65.3 µM (inactive)
same,GI50,[42],35.2 µM (inactive)
same,GI50,[43],51.2 µM (inactive)
same,GI50,[57],> 100 µM (inactive)
same,GI50,[44],39.4 µM (inactive)
same,GI50,[45],81.5 µM (inactive)
same,GI50,[46],> 100 µM (inactive)
same,GI50,[47],> 100 µM (inactive)
same,GI50,[48],> 100 µM (inactive)
same,GI50,[49],> 100 µM (inactive)
same,GI50,[50],69.7 µM (inactive)
same,GI50,[51],> 100 µM (inactive)
same,GI50,[52],> 100 µM (inactive)
same,GI50,[53],44.1 µM (inactive)
same,GI50,[54],97.3 µM (inactive)
COCN(C)c1nc(N(C)C)nc(N(C)C)n1,GI50,[1],> 100 µM (inactive)
same,GI50,[2],> 100 µM (inactive)
same,GI50,[3],> 100 µM (inactive)
same,GI50,[4],40.3 µM (inactive)
same,GI50,[5],> 100 µM (inactive)
same,GI50,[6],81.5 µM (inactive)
same,GI50,[7],> 100 µM (inactive)
same,GI50,[8],> 100 µM (inactive)
same,GI50,[9],> 100 µM (inactive)
same,GI50,[10],> 100 µM (inactive)
same,GI50,[11],> 100 µM (inactive)
same,GI50,[12],> 100 µM (inactive)
same,GI50,[55],> 100 µM (inactive)
same,GI50,[14],> 100 µM (inactive)
same,GI50,[15],> 100 µM (inactive)
same,GI50,[16],> 100 µM (inactive)
same,GI50,[17],> 100 µM
same,GI50,[18],> 100 µM (inactive)
same,GI50,[19],> 100 µM (inactive)
same,GI50,[20],> 100 µM (inactive)
same,GI50,[21],> 100 µM (inactive)
same,GI50,[22],> 100 µM (inactive)
same,GI50,[23],> 100 µM (inactive)
same,GI50,[24],> 100 µM (inactive)
same,GI50,[58],89.3 µM (inactive)
same,GI50,[25],> 100 µM (inactive)
same,GI50,[26],> 100 µM (inactive)
same,GI50,[27],> 100 µM (inactive)
same,GI50,[28],> 100 µM (inactive)
same,GI50,[29],> 100 µM (inactive)
same,GI50,[30],> 100 µM (inactive)
same,GI50,[31],> 100 µM (inactive)
same,GI50,[32],> 100 µM (inactive)
same,GI50,[34],> 100 µM (inactive)
same,GI50,[35],> 100 µM (inactive)
same,GI50,[36],> 100 µM (inactive)
same,GI50,[37],> 100 µM (inactive)
same,GI50,[38],> 100 µM (inactive)
same,GI50,[56],> 100 µM (inactive)
same,GI50,[39],> 100 µM (inactive)
same,GI50,[40],> 100 µM (inactive)
same,GI50,[41],> 100 µM (inactive)
same,GI50,[42],> 100 µM (inactive)
same,GI50,[43],> 100 µM (inactive)
same,GI50,[57],> 100 µM (inactive)
same,GI50,[44],> 100 µM (inactive)
same,GI50,[45],> 100 µM (inactive)
same,GI50,[46],> 100 µM (inactive)
same,GI50,[47],> 100 µM (inactive)
same,GI50,[48],> 100 µM (inactive)
same,GI50,[49],> 100 µM (inactive)
same,GI50,[50],> 100 µM (inactive)
same,GI50,[51],> 100 µM (inactive)
same,GI50,[52],> 100 µM (inactive)
same,GI50,[53],9.06 µM (inactive)
same,GI50,[54],> 100 µM (inactive)
